Laboratory results: patent publication US12325696B2, “Indazole derivative, preparation method therefor, and pharmaceutical application thereof” (JIANGSU HENGRUI MEDICINE CO., LTD., priority 2019, dated 2025)

What was measured:
[1] = test system: estrogen receptor reporter gene; assay: Inhibition of estrogen receptor reporter gene activity (ERE-luc luciferase) in MCF7/ERE-luc cells; assay type: cell-based; settings: Homo sapiens, 0.1 nM β-estradiol, 20 hours, read-out: IC50 of inhibitory activity on the activity of the estrogen receptor reporter gene
Method in brief: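 MCF7 cells stably carrying ERE-driven luciferase, in charcoal-stripped serum medium, were stimulated with 0.1 nM β-estradiol plus compound (nine 10-fold dilutions from 10 μM) for 20 h at 37° C. ONE-Glo luminescence was read, and IC50 was fitted from signal versus log concentration.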

MCF7 ERαY537S = assay: Inhibition of proliferation of MCF7 cell expressing ERα Y537S mutant; assay type: cell-based; settings: Homo sapiens, 144 hours; for Emax: read-out: Maximum inhibition
Method in brief: (§1)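 MCF7 cells stably expressing lentiviral ERα Y537S or D538G mutants, seeded 3,000 cells/well, then exposed in 2% FBS MEM to nine 4-fold dilutions from 100 nM for 144 h at 37° C. Viability read by CellTiter-Glo luminescence; IC50 fitted from concentration-response.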

[2] = biological target: estrogen receptor ERα Y537S mutant-type (Homo sapiens (Human), UniProt P03372, Y537S); assay: Covalent modification of ERα Y537S mutant-type LBD by high-resolution mass spectrometry; assay type: binding; settings: after 24 hours; 2 μM protein, 10 μM compound, 4° C.
Description: (§2) The ligand binding domain (LBD, aa296-554) of estrogen receptor ERα wild-type and ERα Y537S mutant-type was expressed in E. coli and purified. 2 μM ERα wild-type or ERα Y537S mutant-type protein and 10 μM compound were added to a buffer solution containing 50 mM Tris-HCl, pH7.5, 150 mM NaCl, 1 mM TCEP and 5% glycerol and mixed well. The solution was incubated at 4° C. for 24 hours, followed by high-resolution mass spectrometry (Agilent Technologies, Agilent Q-tof 6530) assay. Alternatively, 1 μM ERα wild-type or ERα Y537S mutant-type protein and 3 μM compound were added to a buffer solution containing 50 mM Tris-HCl, pH7.5, 150 mM NaCl, 1 mM TCEP and 5% glycerol and mixed well. The solution was incubated at 37° C. for 15 minutes, followed by high-resolution mass spectrometry assay. In the mass spectrometry assay results, the peak whose molecular weight is the sum of the molecular weight of the protein and compound is the product of covalent modification. The percentage of covalent modification is obtained by calculating the ratio of […] to total protein.

[3] = biological target: estrogen receptor ERα wild-type (Homo sapiens (Human), UniProt P03372); assay: Covalent modification of ERα wild-type LBD by high-resolution mass spectrometry; assay type: binding; settings: after 24 hours; 2 μM protein, 10 μM compound, 4° C.
Description: as §2

MCF7 D538G = assay: Inhibition of proliferation of MCF7 cell expressing ERα D538G mutant; assay type: cell-based; settings: Homo sapiens, 144 hours; for Emax: read-out: Maximum inhibition
Method in brief: as §1

estrogen receptor ERα Y537S mutant-type, sequence (P03372 296-554 Y537S): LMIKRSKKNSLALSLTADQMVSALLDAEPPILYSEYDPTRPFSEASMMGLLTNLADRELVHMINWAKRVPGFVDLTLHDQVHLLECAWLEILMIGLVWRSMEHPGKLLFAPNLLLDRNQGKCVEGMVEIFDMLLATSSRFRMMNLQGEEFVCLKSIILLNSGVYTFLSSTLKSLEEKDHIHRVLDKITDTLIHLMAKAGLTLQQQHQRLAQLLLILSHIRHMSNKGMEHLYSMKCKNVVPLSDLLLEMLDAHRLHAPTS
estrogen receptor ERα wild-type, sequence (P03372 296-554): as the sequence (P03372 296-554 Y537S) above, with S242Y counted along it

SMILES	IC50 [1]	IC50 (MCF7 ERαY537S)	Emax (MCF7 ERαY537S)	Covalent modification effect on the estrogen receptor ERα Y537S mutant-type [2]	Covalent modification effect on the estrogen receptor ERα wild-type [3]	IC50 (MCF7 D538G)	Emax (MCF7 D538G)
O=C(/C=C/CNC1(COc2ccc(/C(=C(/CC(F)(F)F)c3ccccc3)c3ccc4[nH]nc(F)c4c3)cn2)CC1)N1CCOCC1 [Example 1, (E)-1-Morpholino-4-((1-(((5-((Z)-4,4,4-trifluoro-1-(3-fluoro-1H-indazol-5-yl)-2-phenylbut-1-en-1-yl)pyridin-2-yl)oxy)methyl)cyclopropyl)amino)but-2-en-1-one]	1 nM	3 nM	100%	97%	97%	2 nM	100%
CN(C)C(=O)/C=C/CN1CCC[C@@H](Oc2ccc(/C(=C(/CC(F)(F)F)c3ccccc3)c3ccc4[nH]nc(F)c4c3)cn2)C1 [Example 14, (E)-N,N-Dimethyl-4-((R)-3-((5-((Z)-4,4,4-trifluoro-1-(3-fluoro-1H-indazol-5-yl)-2-phenylbut-1-en-1-yl)pyridin-2-yl)oxy)piperidin-1-yl)but-2-enamide]	2 nM	6 nM	97%	94%	93%	3 nM	107%
O=C(/C=C/CN1CCC[C@@H](Oc2ccc(/C(=C(/CC(F)(F)F)c3ccccc3)c3ccc4[nH]nc(F)c4c3)cn2)C1)N1CCCC1 [Example 15, (E)-1-(Pyrrolidin-1-yl)-4-((R)-3-((5-((Z)-4,4,4-trifluoro-1-(3-fluoro-1H-indazol-5-yl)-2-phenylbut-1-en-1-yl)pyridin-2-yl)oxy)piperidin-1-yl)but-2-en-1-one]	3 nM	2 nM	102%	96%	95%	1 nM	105%
CN(C)C(=O)/C=C/CNC1(COc2ccc(/C(=C(/CC(F)(F)F)c3ccccc3)c3ccc4[nH]nc(F)c4c3)cn2)CC1 [Example 39, (E)-N,N-Dimethyl-4-((1-(((5-((Z)-4,4,4-trifluoro-1-(3-fluoro-1H-indazol-5-yl)-2-phenylbut-1-en-1-yl)pyridin-2-yl)oxy)methyl)cyclopropyl)amino)but-2-enamide]	2 nM	1 nM	112%	98%	97%	0.6 nM	105%
O=C(/C=C/CNC1(COc2ccc(/C(=C(/CC(F)(F)F)c3ccccc3)c3ccc4[nH]nc(F)c4c3)cn2)CC1)N1CC(O)C1 [Example 40, (E)-1-(3-Hydroxyazetidin-1-yl)-4-((1-(((5-((Z)-4,4,4-trifluoro-1-(3-fluoro-1H-indazol-5-yl)-2-phenylbut-1-en-1-yl)pyridin-2-yl)oxy)methyl)cyclopropyl)amino)but-2-en-1-one]	2 nM	0.5 nM	112%	98%	96%	0.2 nM	106%
O=C(/C=C/CNC1(COc2ccc(/C(=C(/CC(F)(F)F)c3ccccc3)c3ccc4[nH]nc(F)c4c3)cn2)CC1)N1CC[C@H](O)C1 [Example 41, (E)-1-((S)-3-Hydroxypyrrolidin-1-yl)-4-((1-(((5-((Z)-4,4,4-trifluoro-1-(3-fluoro-1H-indazol-5-yl)-2-phenylbut-1-en-1-yl)pyridin-2-yl)oxy)methyl)cyclopropyl)amino)but-2-en-1-one]	3 nM	0.6 nM	111%	95%	93%	0.2 nM	106%
O=C(/C=C/CNC1(COc2ccc(/C(=C(/CC(F)(F)F)c3ccccc3)c3ccc4[nH]nc(F)c4c3)cn2)CC1)N1CCO[C@@H](CO)C1 [Example 42, (E)-1-((R)-2-(Hydroxymethyl)morpholino)-4-((1-(((5-((Z)-4,4,4-trifluoro-1-(3-fluoro-1H-indazol-5-yl)-2-phenylbut-1-en-1-yl)pyridin-2-yl)oxy)methyl)cyclopropyl)amino)but-2-en-1-one]	0.7 nM	0.2 nM	107%	97%	–	0.1 nM	105%
